Reference: patent publication US7449466B2, “Cyclic aminophenyl sulfamate derivative” (Aska Pharmaceutical Co., Ltd., priority 2003, dated 2008)

Columns and labels:
[1] = system: MCF-7 cells; test: MCF-7 cell proliferation measurement (MTT) for examining estrogenic activity; type: cell-based, human; details: 4 days, 570 nm
Method: (3) MCF-7 Cell Proliferation Measurement for Examining Estrogenic Activity:
Stimulation of MCF-7 cell proliferation induced by estrogenic activity of each test compound was measured.
MCF-7 cells were cultured in 10% fetal bovine serum (FBS)-containing RPMI 1640 medium which was free from Phenol Red, using a 75 cm^2 culture flask. Then the medium was changed to RPMI 1640 medium containing 10% of FBS from which emdogenous steroid had been eliminated by charcoal treatment but containing no Phenol Red. Renewing the medium every two days, the culture was continued for 4 days. By this step estrogen was removed from the MCF-7 cells.
The MCF-7 cells were seeded on 96-well plates, 2,000 cells per well, and cultured for 24 hours to immobilize the cells on the plate. After the cell immobilization, the medium in each well was changed to RPMI 1640 medium containing 10^−6M test compound and 10% of charcoal-treated FBS but containing no Phenol Red, and the culture was continued for further 4 days, during which the medium was changed every day to one newly prepared before the use. Also control wells to which no test compound was added were provided.
After the end of the culture, the cell proliferation was measured by MTT (3-(4,5-dimethylthiazol-2-yl)-2,5-diphenyl-2H-tetrazolium bromide; Sigma-Aldrich Japan Co.) method. That is, an MTT solution as dissolved in PBS at a concentration of 5 mg/mL was added to the 96-well plate accommodating the cells, at a rate of 10 μL/well, followed by 2 hours' incubation at 37° C. After the end of the incubation, the medium was removed and the formazan which was taken into the cells and changed was dissolved with 100 μL of dimethylsulfoxide. Absorbance of the formazan was measured at wavelength 570 nm, using a microplate reader, subtracting the 630 nm background.
As shown by the Table 3, absorbance values of the wells to which the test compounds were added were invariably less than 150% of the absorbance of the control well, and it was confirmed that the test compounds were free of estrogenic activity.

[2] = biological target: T1, steroid sulfatase (Homo sapiens, UniProt P08842); test: Steroid sulfatase inhibitory activity (in vitro), microsomal fraction of MCF-7 cells, [3H]estrone-3-sulfate hydrolysis; type: biochemical; parameters: microsomal fraction of MCF-7 human breast cancer cells was used; endogenous in cells; host or cells: MCF-7 human breast cancer cells (microsomal fraction); details: MCF-7 microsomal fraction, 37° C., 30 minutes
T1 sequence (P08842 22-583): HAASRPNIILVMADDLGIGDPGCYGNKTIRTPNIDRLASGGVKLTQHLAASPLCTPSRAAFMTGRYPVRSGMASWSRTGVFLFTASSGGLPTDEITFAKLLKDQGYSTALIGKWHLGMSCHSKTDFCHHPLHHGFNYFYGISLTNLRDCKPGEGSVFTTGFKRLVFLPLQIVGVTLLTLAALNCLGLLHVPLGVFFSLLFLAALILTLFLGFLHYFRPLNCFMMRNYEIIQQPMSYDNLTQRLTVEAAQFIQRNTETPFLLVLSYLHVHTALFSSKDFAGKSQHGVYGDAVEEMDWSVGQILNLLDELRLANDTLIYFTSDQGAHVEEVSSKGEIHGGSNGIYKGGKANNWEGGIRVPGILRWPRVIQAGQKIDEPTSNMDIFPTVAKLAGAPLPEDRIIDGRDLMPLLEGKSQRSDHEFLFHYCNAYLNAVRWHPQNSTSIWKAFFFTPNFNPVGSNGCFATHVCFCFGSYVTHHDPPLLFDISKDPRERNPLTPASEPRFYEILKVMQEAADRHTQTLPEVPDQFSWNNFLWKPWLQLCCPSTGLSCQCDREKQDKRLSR
Method: (1) Measurement of Steroid Sulfatase Inhibitory Activity (in vitro):
As the source of steroid sulfatase enzyme, microsomal fraction of MCF-7 human breast cancer cells was used.
To phosphate buffered saline (PBS), one of the test compounds, the microsomal fraction and 50 μL of 60 μM estrone-3-sulfate containing about 100 nCi of [6,7-^3H]estrone-3-sulfate (purchased from Perkin Elmer Life Sciences, Boston, Mass., USA; specific activity, 40-60 Ci/mmol) were added to make the total amount of the reaction system 150 μL, which was incubated at 37° C. for 30 minutes. After the incubation, 50 μL of PBS containing about 2 nCi of [4-^14C] estrone (purchased from Perkin Elmer Life Sciences, Boston, Mass., USA; specific activity 45-60 mCi/mmol) was added and stirred. Further 800 μL of toluene was added, and the whole system was thoroughly shaken for 30 seconds, followed by centrifugation at 2,000×g for 10 minutes to separate the acqueous phase from the organic phase. A part (400 μL) of the organic phase was taken and measured of its ^3H and ^14C contents with scintillation spectrometer.
The mass of hydrolyzed [6,7-^3H]estrone-3-sulfate was calculated from the count number of the obtained ^3H (as corrected regarding the amount of the used organic phase and the recovered amount of [4-^14C]estrone) and the specific activity of the substrate ([6,7-^3H]estrone-3-sulfate) to determine the steroid sulfatase inhibitory rate of each test compound.

[3] = system: Salmonella typhimurium TA 100, TA 1535, TA 98 and TA 1537 strains and Escherichia coli WP 2 uvrA strains; test: Reverse mutation test using bacteria (Ames test), with and without metabolic activation; type: cell-based; details: 10-5,000 μg/well; with and without Rat Liver S9mix
Method: (6) Reverse Mutation Test Using Bacteria (Ames Test) for Examining Presence of Gentic Toxicity:
Reverse mutation-inducing activity on bacteria of the test compounds was examined by reverse mutation test using bacteria (Mutat. Res., 113, 173-215). The test was conducted by plate incorporation method using Salmonella typhimurium TA 100, TA 1535, TA 98 and TA 1537 strains and Escherichia coli WP 2 uvrA strains as to both cases of not conducting metabolic activation and conducting metabolic activation. The dosages were set at six levels as 10, 50, 100, 500, 1000 and 5,000 μg/well.
Into a sterilized test tube, 0.1 mL of a test compound or a solvent, 0.5 mL of sodium-phosphate buffer (pH=7.4), 0.1 mL of a bacterial suspension and 2 mL of soft agar solution were added and mixed. Where metabolic activation was conducted, […] sodium-phosphate buffer (pH=7.4) was replaced with 0.5 mL of Rat Liver S9mix. The liquid mixture was superposed on the minimum glucose agar medium and after the superposed soft agar solution solidified, the system was cultured at 37° C. for 48 hours. At the end of the culture the number of colonies in which reverse mutation had been induced was visually counted with a colony counter. […]

NS(=O)(=O)Oc1ccc(N2CCN(CCCC3CCCCC3)CC2)cc1F [Example 24, 4-[4-(3-cyclohexylpropyl)piperazin-1-yl]-2-fluorophenyl-O-sulfamate]
Absorbance relative to that of the control well (10^−6 M, %) [1]: 74.6%
Inhibitory rate (%) (10^−6 M) ([2]; 10^−6 M test compound): 88.8%
Inhibitory rate (%) (10^−7 M) ([2]; 10^−7 M test compound): 31.1%
Ames test (reverse mutation inducing activity) [3]: negative
